Columns and labels:
EPO binding to D11 [1] = assay: Binding of EPO to D11 monoclonal antibody after UV-B exposure of the formulation; parameters: species or system human
Procedure: For the examples below involving exposure to UVB radiation, each sample was exposed to UVB light (λ≈302 nm) for varying times, using a UVP 8W model UVLMS-38 lamp at 4° C. The formulations were then analyzed using size exclusion chromatography high pressure liquid chromatography (SEC-HPLC). Aggregation (measured via SEC-HPLC analysis) and binding (measured using CM5 gold sensor chips) were measured to determine the effect of the antioxidant on aggregation and bioactivity of the therapeutic protein. The binding activity of therapeutic protein to a ligand (e.g. to an antibody or binding partner, or, in cases where the therapeutic was an antibody, binding activity to the specific target antigen or to protein A) was determined as follows. […] The therapeutic protein-binding ligand of interest was injected until the desired immobilization level was achieved (above 5000 response units). Three different therapeutic protein-binding ligands were measured—Antibody A's target antigen, Protein A, and D11 (an antibody that binds to erythropoietin). […] The remaining activated groups were blocked with 1.0 M ethanolamine-HCl, pH 8.5. A standard curve was prepared by using native forms of the therapeutic protein of interest. Native forms of the therapeutic protein were diluted in HBS-EP buffer (pH 7.4) to concentrations between 1 and 5 μg/mL, and then injected on the column, prepared as described above to obtain a standard curve. At the end of each sample run, regeneration buffer was used to wash away any bound therapeutic protein in preparation for subsequent injections. Various UV-stressed antibody formulations were also diluted in HBS-EP buffer (pH 7.4) to a concentration within the standard curve region, and injected to quantitate the loss of bioactivity to its respective ligand-binding partner. […] The protein was exposed to the same conditions as Antibody A and Antibody B for up to 24 hours.

[2] = system: anti-streptavidin (IgG2 antibody); assay: Thermal aggregation of anti-streptavidin at 52° C. for 10 days; format: physicochemical; conditions: 10 mM antioxidant; 50 mM sodium acetate pH 5.00; no UV
Procedure: The SEC-HPLC conditions were as follows: a G3000 TOSOH SWXL column was used and the flowrate was set at 0.5 mL/min. […] Anti-streptavidin was formulated in 50 mM sodium acetate at pH 5.00. These formulations were not exposed to UV radiation but assessed on their thermal stability.

EPO binding to D11 [3] = assay: EPO binding activity after metal catalyzed oxidation (Fe-EDTA, H2O2, ascorbate); parameters: species or system human; conditions: 5 mM ferulic acid; EPO 336 μg/mL in HBS pH 7.0; 0.2 mM Fe-EDTA, 0.3% H2O2, 1 mM ascorbate, 2 hours 37° C.
Procedure: The binding activity of therapeutic protein to a ligand (e.g. to an antibody or binding partner, or, in cases where the therapeutic was an antibody, binding activity to the specific target antigen or to protein A) was determined as follows. Carboxymethyl-dextran chains on a CM5 gold sensor chip were activated with 1-ethyl-3-(3-dimethylaminopropyl)-carbodiimide HCl (EDC) and N-hydroxysuccinimide (NETS) at a flow rate of 5 μL/min. The therapeutic protein-binding ligand of interest was injected until the desired immobilization level was achieved (above 5000 response units). Three different therapeutic protein-binding ligands were measured—Antibody A's target antigen, Protein A, and D11 (an antibody that binds to erythropoietin). For introduction of Antibody A's target antigen to the column, an 80 μg injection of the antigen, diluted in 10 mM Na Acetate pH 4.0 was introduced; for Protein A, a 4 μg injection of Protein A, diluted in 10 mM Na Acetate pH 4.5, was introduced; for D11, a […] injection of D11, diluted in 10 mM Na Acetate pH 5.0 was introduced. The remaining activated groups were blocked with 1.0 M ethanolamine-HCl, pH 8.5.
A standard curve was prepared by using native forms of the therapeutic protein of interest. […]

SMILES: COc1cc(/C=C/C(=O)O)ccc1O [ferulic acid]
- EPO binding activity to D11 during UV-B exposure (EPO binding to D11 [1]; 0.1 mM antioxidant, UV-B up to 24 hours): able to protect the EPO from degradation and preserve its binding activity
- binding of EPO to D11 mAb after UV light exposure (EPO binding to D11 [1]; 20 mM antioxidant, up to 24 hours UV): able to significantly preserve
- aggregation of anti-streptavidin after 10 days at 52° C. [2]: contributed to the aggregation of anti-streptavidin
- EPO binding activity preserved (EPO binding to D11 [3]): 100%

Source: patent publication US12440567B2, “Aqueous antibody formulation stabilized by antioxidants for parenteral administration” (AMGEN INC., priority 2007, dated 2025)
